Experimental findings from patent US8663915B2, “Methods of controlling tumorigenesis and diagnosing the risk thereof” (Agency for Science, Technology and Research, priority 2007, dated 2014) are described below.

In experiment [1] the test system is ERK phosphorylation in MCF10A-RCP cells.
Experimental: Western blot analysis. Whole cell lysates were prepared using RIPA buffer. The proteins were separated by SDS-PAGE and transferred to Hybond-P PVDF membrane (GE Healthcare). Antibodies to RCP (Genway, Catalog Number (CN): 15-288-21574A), β-actin (Sigma, CN: A5441), phospho-Akt (Cell Signaling Technology, CN: 9271), Akt (Cell Signaling Technology, CN: 9272), phospho-Erk (Cell Signaling Technology, CN: 9101), and Erk (Cell Signalling, CN: 9102) were used to probe the membrane, and antibody-protein complex was detected by HRP-conjugated antibodies and ECL (Amersham Biosciences).
For the MAPK inhibition assays, cells were treated with MEK inhibitor U0126 (Promega) overnight in medium with 0.5% serum before being re-plated into 96-well plates.
In another experiment the test system is MCF10A-RCP cells. The settings on record: 30 uM U0126.

Consider `N#CC(=C(/N)Sc1ccccc1N)/C(C#N)=C(\N)Sc1ccccc1N` [U0126], for which the “RCP-induced phosphorylation of ERK” value in experiment [1] (30 μM of U0126) is “reduced to baseline”. In addition, the ERK phosphorylation status entry in experiment [1] (range of U0126 concentrations) is recorded as “concentration dependent”. Besides, the proliferation entry in the experiment on MCF10A-RCP cells is “reduction of proliferation down to control levels”.
